System: NHBE cells
Assay: Biolog metabolic array: substrate use by NHBE cells with or without CA09 infection
Assay type: cell-based, human
Settings: for Substrate use, 590 nm absorbance normalized to zero hour, 0 hr: Biolog PMM2, 0 hr; for Substrate use, 590 nm absorbance normalized to zero hour, 1 hr: Biolog PMM2, 1 hr; for Substrate use, 590 nm absorbance normalized to zero hour, 5 hr: Biolog PMM2, 5 hr; for Substrate use, 590 nm absorbance normalized to zero hour, 7 hr: Biolog PMM2, 7 hr
[1] = Control (uninfected) NHBE cells
[2] = Virus (CA09-infected, MOI 1) NHBE cells
[3] = Virus: CA09-infected NHBE cells, MOI 1, Biolog PMM2
[4] = Virus (CA09-infected NHBE cells, MOI 1)

SMILES: CO[C@H]1O[C@H](CO)[C@H](O)[C@H](O)[C@H]1O [a-Methyl-D-Galactoside]
- 590 nm absorbance normalized to zero hour (substrate use), 0 hr [1]: 1.00
- 590 nm absorbance normalized to zero hour (substrate use), 1 hr [1]: 1.13
- 590 nm absorbance normalized to zero hour (substrate use), 2 hr [1]: 0.68
- 590 nm absorbance normalized to zero hour (substrate use), 3 hr [1]: 0.80
- 590 nm absorbance normalized to zero hour (substrate use), 4 hr [1]: 0.84
- 590 nm absorbance normalized to zero hour (substrate use), 6 hr [1]: 1.20
- 590 nm absorbance normalized to zero hour (substrate use), 8 hr [1]: 1.15
- 590 nm absorbance normalized to zero hour (substrate use), 9 hr [1]: 1.29
- 590 nm absorbance normalized to zero hour (substrate use), 10 hr [1]: 1.42
- 590 nm absorbance normalized to zero hour (substrate use), 11 hr [1]: 1.06
- Substrate use, 590 nm absorbance normalized to zero hour, 0 hr [1]: 1.00
- Substrate use, 590 nm absorbance normalized to zero hour, 1 hr [1]: 1.13
- Substrate use, 590 nm absorbance normalized to zero hour, 5 hr [1]: 1.01
- Substrate use, 590 nm absorbance normalized to zero hour, 7 hr [1]: 1.15
- 590 nm absorbance normalized to zero hour (substrate use), 0 hr [2]: 1.00
- 590 nm absorbance normalized to zero hour (substrate use), 1 hr [2]: 2.91
- 590 nm absorbance normalized to zero hour (substrate use), 2 hr [2]: 1.88
- 590 nm absorbance normalized to zero hour (substrate use), 3 hr [2]: 1.16
- 590 nm absorbance normalized to zero hour (substrate use), 4 hr [2]: 1.24
- 590 nm absorbance normalized to zero hour (substrate use), 5 hr [2]: 1.43
- 590 nm absorbance normalized to zero hour (substrate use), 6 hr [2]: 1.51
- 590 nm absorbance normalized to zero hour (substrate use), 7 hr [2]: 1.59
- 590 nm absorbance normalized to zero hour (substrate use), 8 hr [2]: 1.67
- 590 nm absorbance normalized to zero hour (substrate use), 9 hr [2]: 1.83
- 590 nm absorbance normalized to zero hour (substrate use), 10 hr [2]: 1.89
- 590 nm absorbance normalized to zero hour (substrate use), 11 hr [2]: 2.05
- 590 nm absorbance normalized to zero hour (substrate use), 0 hr [3]: 1.00
- 590 nm absorbance normalized to zero hour (substrate use), 1 hr [3]: 2.91
- 590 nm absorbance normalized to zero hour (substrate use), 2 hr [3]: 1.88
- 590 nm absorbance normalized to zero hour (substrate use), 3 hr [3]: 1.16
- 590 nm absorbance normalized to zero hour (substrate use), 4 hr [3]: 1.24
- 590 nm absorbance normalized to zero hour (substrate use), 5 hr [3]: 1.43
- 590 nm absorbance normalized to zero hour (substrate use), 6 hr [3]: 1.51
- 590 nm absorbance normalized to zero hour (substrate use), 7 hr [3]: 1.59
- 590 nm absorbance normalized to zero hour (substrate use), 8 hr [3]: 1.67
- 590 nm absorbance normalized to zero hour (substrate use), 9 hr [3]: 1.83
- 590 nm absorbance normalized to zero hour (substrate use), 10 hr [3]: 1.89
- 590 nm absorbance normalized to zero hour (substrate use), 11 hr [3]: 2.05

SMILES: OC[C@H]1O[C@@H](O[C@@H]2[C@@H](CO)OC(O)(CO)[C@H]2O)[C@H](O)[C@@H](O)[C@H]1O (mixture of isomers) [Lactulose]
- 590 nm absorbance normalized to zero hour (substrate use), 1 hr [1]: 1.71
- 590 nm absorbance normalized to zero hour (substrate use), 2 hr [1]: 2.30
- 590 nm absorbance normalized to zero hour (substrate use), 3 hr [1]: 2.70
- 590 nm absorbance normalized to zero hour (substrate use), 4 hr [1]: 2.88
- 590 nm absorbance normalized to zero hour (substrate use), 6 hr [1]: 3.78
- 590 nm absorbance normalized to zero hour (substrate use), 8 hr [1]: 4.04
- 590 nm absorbance normalized to zero hour (substrate use), 9 hr [1]: 4.27
- 590 nm absorbance normalized to zero hour (substrate use), 10 hr [1]: 4.46
- 590 nm absorbance normalized to zero hour (substrate use), 11 hr [1]: 5.14
- Substrate use, 590 nm absorbance normalized to zero hour, 1 hr [1]: 1.71
- Substrate use, 590 nm absorbance normalized to zero hour, 5 hr [1]: 3.40
- Substrate use, 590 nm absorbance normalized to zero hour, 7 hr [1]: 3.82
- 590 nm absorbance normalized to zero hour (substrate use), 1 hr [2]: 1.68
- 590 nm absorbance normalized to zero hour (substrate use), 2 hr [2]: 2.24
- 590 nm absorbance normalized to zero hour (substrate use), 3 hr [2]: 2.56
- 590 nm absorbance normalized to zero hour (substrate use), 4 hr [2]: 2.71
- 590 nm absorbance normalized to zero hour (substrate use), 5 hr [2]: 3.13
- 590 nm absorbance normalized to zero hour (substrate use), 6 hr [2]: 3.31
- 590 nm absorbance normalized to zero hour (substrate use), 7 hr [2]: 3.50
- 590 nm absorbance normalized to zero hour (substrate use), 8 hr [2]: 3.70
- 590 nm absorbance normalized to zero hour (substrate use), 9 hr [2]: 4.05
- 590 nm absorbance normalized to zero hour (substrate use), 10 hr [2]: 4.25
- 590 nm absorbance normalized to zero hour (substrate use), 11 hr [2]: 4.63
- 590 nm absorbance normalized to zero hour (substrate use), 1 hr [3]: 1.68
- 590 nm absorbance normalized to zero hour (substrate use), 2 hr [3]: 2.24
- 590 nm absorbance normalized to zero hour (substrate use), 3 hr [3]: 2.56
- 590 nm absorbance normalized to zero hour (substrate use), 4 hr [3]: 2.71
- 590 nm absorbance normalized to zero hour (substrate use), 5 hr [3]: 3.13
- 590 nm absorbance normalized to zero hour (substrate use), 6 hr [3]: 3.31
- 590 nm absorbance normalized to zero hour (substrate use), 7 hr [3]: 3.50
- 590 nm absorbance normalized to zero hour (substrate use), 8 hr [3]: 3.70
- 590 nm absorbance normalized to zero hour (substrate use), 9 hr [3]: 4.05
- 590 nm absorbance normalized to zero hour (substrate use), 10 hr [3]: 4.25
- 590 nm absorbance normalized to zero hour (substrate use), 11 hr [3]: 4.63

SMILES: OC[C@H]1O[C@H](OC[C@H]2OC(O)(CO)[C@@H](O)[C@@H]2O)[C@H](O)[C@@H](O)[C@@H]1O (some centres unmarked) [Palatinose]
- 590 nm absorbance normalized to zero hour (substrate use), 0 hr [1]: 1.00
- 590 nm absorbance normalized to zero hour (substrate use), 1 hr [1]: 1.31
- 590 nm absorbance normalized to zero hour (substrate use), 2 hr [1]: 1.79
- 590 nm absorbance normalized to zero hour (substrate use), 3 hr [1]: 1.68
- 590 nm absorbance normalized to zero hour (substrate use), 4 hr [1]: 1.81
- 590 nm absorbance normalized to zero hour (substrate use), 6 hr [1]: 2.44
- 590 nm absorbance normalized to zero hour (substrate use), 8 hr [1]: 2.16
- 590 nm absorbance normalized to zero hour (substrate use), 9 hr [1]: 2.14
- 590 nm absorbance normalized to zero hour (substrate use), 10 hr [1]: 1.94
- 590 nm absorbance normalized to zero hour (substrate use), 11 hr [1]: 1.44
- Substrate use, 590 nm absorbance normalized to zero hour, 0 hr [1]: 1.00
- Substrate use, 590 nm absorbance normalized to zero hour, 1 hr [1]: 1.31
- Substrate use, 590 nm absorbance normalized to zero hour, 5 hr [1]: 2.10
- Substrate use, 590 nm absorbance normalized to zero hour, 7 hr [1]: 2.18
- 590 nm absorbance normalized to zero hour (substrate use), 0 hr [4]: 1.00
- 590 nm absorbance normalized to zero hour (substrate use), 1 hr [4]: 0.18
- 590 nm absorbance normalized to zero hour (substrate use), 2 hr [4]: 0.24
- 590 nm absorbance normalized to zero hour (substrate use), 3 hr [4]: 0.28
- 590 nm absorbance normalized to zero hour (substrate use), 4 hr [4]: 0.29
- 590 nm absorbance normalized to zero hour (substrate use), 5 hr [4]: 0.34
- 590 nm absorbance normalized to zero hour (substrate use), 6 hr [4]: 0.36
- 590 nm absorbance normalized to zero hour (substrate use), 7 hr [4]: 0.38
- 590 nm absorbance normalized to zero hour (substrate use), 8 hr [4]: 0.41
- 590 nm absorbance normalized to zero hour (substrate use), 9 hr [4]: 0.45
- 590 nm absorbance normalized to zero hour (substrate use), 10 hr [4]: 0.46
- 590 nm absorbance normalized to zero hour (substrate use), 11 hr [4]: 0.50
- 590 nm absorbance normalized to zero hour (substrate use), 0 hr [3]: 1.00
- 590 nm absorbance normalized to zero hour (substrate use), 1 hr [3]: 0.18
- 590 nm absorbance normalized to zero hour (substrate use), 2 hr [3]: 0.24
- 590 nm absorbance normalized to zero hour (substrate use), 3 hr [3]: 0.28
- 590 nm absorbance normalized to zero hour (substrate use), 4 hr [3]: 0.29
- 590 nm absorbance normalized to zero hour (substrate use), 5 hr [3]: 0.34
- 590 nm absorbance normalized to zero hour (substrate use), 6 hr [3]: 0.36
- 590 nm absorbance normalized to zero hour (substrate use), 7 hr [3]: 0.38
- 590 nm absorbance normalized to zero hour (substrate use), 8 hr [3]: 0.41
- 590 nm absorbance normalized to zero hour (substrate use), 9 hr [3]: 0.45
- 590 nm absorbance normalized to zero hour (substrate use), 10 hr [3]: 0.46
- 590 nm absorbance normalized to zero hour (substrate use), 11 hr [3]: 0.50
